Here are results for three compounds from ChEMBL document CHEMBL5029167, “Development of Asialoglycoprotein-Mediated Hepatocyte-Targeting Antitumor Prodrugs Triggered by Glutathione” (J Med Chem, 2021).

For data set [1], the system named is HepG2. Nature of the data set: Cell cycle arrest in human HepG2 cells assessed as accumulation at G2/M phase at 2 uM measured after 24 hrs by propidium iodide staining based flow cytometric analysis (reference value: 7.63%). It is filed as functional.
The subject of data set [2] is HepG2. Nature of the data set: Induction of apoptosis in human HepG2 cells assessed as late apoptotic cells at 12 uM measured after 24 hrs by annexinV-FITC/propidium iodide double staining based flow cytometric analysis (reference value: 0.1 %). It is filed as functional.
Data set [3] concerns HepG2. Nature of the data set: Induction of apoptosis in human HepG2 cells assessed as early apoptotic cells at 12 uM measured after 24 hrs by annexinV-FITC/propidium iodide double staining based flow cytometric analysis (reference value: 6.3 %). It counts as functional.
Data set [4] is described as follows: Drug distribution in Kunming mouse liver at 3.5 mg/kg, iv measured after 3 hrs by confocal scanning microscopic analysis. Conditions: in vivo. It is filed as ADME, organism-based.
Data set [5] concerns HepG2. Kind of data set: Induction of apoptosis in human HepG2 cells assessed as late apoptotic cells at 6 uM measured after 24 hrs by annexinV-FITC/propidium iodide double staining based flow cytometric analysis (reference value: 0.1 %). It counts as functional. (In general: In flow cytometry, cells or beads pass a laser one at a time.)
Data set [6] has as its system HepG2. Nature of the data set: Cell cycle arrest in human HepG2 cells assessed as accumulation at S phase at 8 uM measured after 24 hrs by propidium iodide staining based flow cytometric analysis (reference value: 37.10%). It counts as functional.
Data set [7] deals with HepG2. Nature of the data set: Cell cycle arrest in human HepG2 cells assessed as accumulation at G0/G1 phase at 8 uM measured after 24 hrs by propidium iodide staining based flow cytometric analysis (reference value: 55.27%). It is filed as functional.
The subject of data set [8] is HepG2. Nature of the data set: Induction of apoptosis in human HepG2 cells assessed as viable cells at 9 uM measured after 24 hrs by annexinV-FITC/propidium iodide double staining based flow cytometric analysis (reference value: 93.6 %). It is filed as functional. Conditions: read-out: Activity.
A short description of data set [9]: Drug distribution in Kunming mouse lung at 3.5 mg/kg, iv measured after 3 hrs by confocal scanning microscopic analysis. It counts as ADME, organism-based. Conditions: in vivo.
The subject of data set [10] is HepG2. Nature of the data set: Induction of morphological changes in human HepG2 cells assessed as chromatin condensation incubated for 24 hrs by Hoechst 33342 staining based analysis. It is filed as functional, cell-based.
Data set [11] concerns HepG2. Nature of the data set: Induction of apoptosis in human HepG2 cells assessed as upregulation of caspase 3 protein expression at 2 to 8 uM after 24 hrs. It counts as functional, cell-based. Conditions: dose 2-8 µM.
Data set [12] deals with HepG2. Nature of the data set: Induction of apoptosis in human HepG2 cells assessed as necrotic cells at 6 uM measured after 24 hrs by annexinV-FITC/propidium iodide double staining based flow cytometric analysis (reference value: 0.0 %). It counts as functional.
Data set [13] deals with HepG2. Kind of data set: Induction of apoptosis in human HepG2 cells assessed as viable cells at 6 uM measured after 24 hrs by annexinV-FITC/propidium iodide double staining based flow cytometric analysis (reference value: 93.6 %). It counts as functional. Conditions: read-out: Activity.
Data set [14] has as its system HepG2. Kind of data set: Cell cycle arrest in human HepG2 cells assessed as accumulation at G0/G1 phase at 4 uM measured after 24 hrs by propidium iodide staining based flow cytometric analysis (reference value: 55.27%). It is filed as functional.
Data set [15] has as its system HepG2. Kind of data set: Inhibition of colony formation in human HepG2 cells after 7 days by crystal violet staining based inverted microscopic analysis. It counts as functional, cell-based. Conditions: time 7.0 day.
The test system of data set [16] is HepG2. Nature of the data set: Cytotoxicity against human HepG2 cells at 2 to 10 uM after 48 hrs by MTT assay. It is filed as functional, cell-based. Conditions: HepG2, 48 h. A general note: Formazan colour is commonly taken as a measure of viable cells.
A short description of data set [17]: Toxicity in Kunming mouse implanted with mouse H22 cells assessed as change in organ weight at 3.5 mg/kg after 7 days. It is filed as organism-based. Conditions: in vivo, 168 h, time 7 day.
The subject of data set [18] is HepG2. Kind of data set: Induction of apoptosis in human HepG2 cells assessed as viable cells at 12 uM measured after 24 hrs by annexinV-FITC/propidium iodide double staining based flow cytometric analysis (reference value: 93.6 %). It is filed as functional. Conditions: read-out: Activity.
The test system of data set [19] is HepG2. Kind of data set: Induction of apoptosis in human HepG2 cells assessed as early apoptotic cells at 9 uM measured after 24 hrs by annexinV-FITC/propidium iodide double staining based flow cytometric analysis (reference value: 6.3 %). It is filed as functional.
Data set [20] in a line: Toxicity in Kunming mouse implanted with mouse H22 cells assessed as change in body weight at 3.5 mg/kg after 7 days. It is filed as organism-based. Conditions: in vivo, 168 h, time 7 day.
Data set [21] is described as follows: Drug distribution in Kunming mouse spleen at 3.5 mg/kg, iv measured after 3 hrs by confocal scanning microscopic analysis. It counts as ADME, organism-based. Conditions: in vivo.
The nature of data set [22]: Drug uptake in human HepG2 cells at 10 uM after 15 mins by confocal scanning microscopic analysis. It counts as ADME, cell-based. Conditions: hepg2, 0.25 h.
Data set [23] deals with HepG2. Kind of data set: Induction of apoptosis in human HepG2 cells assessed as necrotic cells at 9 uM measured after 24 hrs by annexinV-FITC/propidium iodide double staining based flow cytometric analysis (reference value: 0.0 %). It is filed as functional.
Another data set deals with H22. Nature of the data set: Antitumor activity against mouse H22 cells implanted in Kunming mouse assessed as tumor growth inhibition at 3.5 mg/kg measured on day 7. The arrangement: scale not given: the % may be the effect or the level left. It counts as functional. Conditions: time 7 day.
The subject of data set [24] is HepG2. Nature of the data set: Induction of morphological changes in human HepG2 cells assessed as chromatin fragmentation incubated for 24 hrs by Hoechst 33342 staining based analysis. It is filed as functional, cell-based.
The test system of data set [25] is HepG2. Nature of the data set: Cell cycle arrest in human HepG2 cells assessed as accumulation at G2/M phase at 4 uM measured after 24 hrs by propidium iodide staining based flow cytometric analysis (reference value: 7.63%). It is filed as functional.
Data set [26] has as its system HepG2. Nature of the data set: Cell cycle arrest in human HepG2 cells assessed as accumulation at G0/G1 phase at 2 uM measured after 24 hrs by propidium iodide staining based flow cytometric analysis (reference value: 55.27%). It is filed as functional.
Data set [27] has as its system HepG2. Nature of the data set: Induction of apoptosis in human HepG2 cells assessed as late apoptotic cells at 9 uM measured after 24 hrs by annexinV-FITC/propidium iodide double staining based flow cytometric analysis (reference value: 0.1 %). It is filed as functional.
For data set [28], the system named is HepG2. Nature of the data set: Cell cycle arrest in human HepG2 cells assessed as accumulation at G2/M phase at 8 uM measured after 24 hrs by propidium iodide staining based flow cytometric analysis (reference value: 7.63%). It is filed as functional.
Data set [29] deals with HepG2. Nature of the data set: Induction of apoptosis in human HepG2 cells assessed as necrotic cells at 12 uM measured after 24 hrs by annexinV-FITC/propidium iodide double staining based flow cytometric analysis (reference value: 0.0 %). It is filed as functional.
Data set [30] has as its system HepG2. Nature of the data set: Cell cycle arrest in human HepG2 cells assessed as accumulation at S phase at 4 uM measured after 24 hrs by propidium iodide staining based flow cytometric analysis (reference value: 37.10%). It is filed as functional.
Data set [31] is described as follows: Drug uptake in human A549 cells at 10 uM after 15 mins by confocal scanning microscopic analysis. Conditions: a549, 0.25 h. It is filed as ADME, cell-based.
Data set [32] is described as follows: Drug distribution in Kunming mouse kidney at 3.5 mg/kg, iv measured after 3 hrs by confocal scanning microscopic analysis. It counts as ADME, organism-based. Conditions: in vivo.
The nature of data set [33]: Drug distribution in Kunming mouse heart at 3.5 mg/kg, iv measured after 3 hrs by confocal scanning microscopic analysis. It is filed as ADME, organism-based. Conditions: in vivo.
Data set [34] in a line: Drug uptake in human HeLa cells at 10 uM after 15 mins by confocal scanning microscopic analysis. It is filed as ADME, cell-based. Conditions: 0.25 h.
Data set [35] can be described thus: Drug uptake in human SGC-7901 cells at 10 uM after 15 mins by confocal scanning microscopic analysis. It is filed as ADME, cell-based. Conditions: sgc-7901, 0.25 h.
Data set [36] has as its system HepG2. Nature of the data set: Induction of apoptosis in human HepG2 cells assessed as early apoptotic cells at 6 uM measured after 24 hrs by annexinV-FITC/propidium iodide double staining based flow cytometric analysis (reference value: 6.3 %). It counts as functional.
Data set [37] relates to HepG2. Nature of the data set: Inhibition of cell migration in human HepG2 cells after 24 hrs by crystal violet staining based inverted microscopic analysis. It counts as functional.
In data set [38] the test system is HepG2. Kind of data set: Cell cycle arrest in human HepG2 cells assessed as accumulation at S phase at 2 uM measured after 24 hrs by propidium iodide staining based flow cytometric analysis (reference value: 37.10%). It is filed as functional.
A short description of data set [39]: Stability of compound in GSH measured upto 24 hrs. Conditions: GSH (glutathione), read-out: Stability. It counts as physicochemical.
Data set [40] is described as follows: Drug uptake in human HepG2 cells pretreated with galactose for 30 mins followed by compound addition and measured after 15 mins by confocal scanning microscopic analysis. It is filed as ADME, cell-based. Conditions: hepg2, 0.75 h, time 45 min.
Data set [41] can be described thus: Drug distribution in Kunming mouse liver at 8.4 mg/kg, iv measured after 3 hrs by confocal scanning microscopic analysis. It is filed as ADME, organism-based. Conditions: in vivo.
Data set [42] relates to HepG2. Kind of data set: Cytotoxicity against human HepG2 cells at 10 to 80 uM after 24 hrs. It counts as cell-based. Conditions: hepg2, 24 h, dose 10-80 µM.

Active and inactive are the calls of the source. The rule behind the calls is not given here.

Take `C=C[C@]1(C)CC[C@@H](C(=C)Cn2cc(CN3C(=O)c4cccc5c(N6CCNCC6)ccc(c45)C3=O)nn2)C[C@H]1C(=C)C`: the Activity turned out to be 6.61% in the data set with HepG2 [1]; 0.3% with HepG2 [2]; 94.9% in the data set on HepG2 [3]; 1.9% in the data set on HepG2 [5]; 21.81% in the data set on HepG2 [6]; 71.44% in the data set with HepG2 [7]. In addition, the Activity in the data set on HepG2 [12] is given as 0%; with HepG2 [14], 64.24%; in data set [17], “Non-Toxic”; with HepG2 [19], 89.4%; in data set [20], “Non-Toxic”; in the data set on HepG2 [23], 0%. In addition, the Activity with H22 stood at 33.65%; in the data set with HepG2 [25], 5.29%; in the data set on HepG2 [26], 63.46%; in the data set on HepG2 [27] it was 0.9%; in the data set with HepG2 [28] it was 67.4%; in the data set with HepG2 [29], 0%. For the same compound, the Activity stood at 30.47% with HepG2 [30], 46.5% in the data set with HepG2 [36] and 29.93% in the data set on HepG2 [38]. Moreover, the Drug uptake result in data set [4], in [9], in [21], in [22], in data set [31] and in [32] was “Not Active” in each case. Further, the Drug uptake result in [33], in [34] and in [35] was “Not Active” each time. Besides, in the data set on HepG2 [8], the viability at 9 µM turned out to be 9.7%. Besides, the result with HepG2 [10], in the data set with HepG2 [11] and in the data set on HepG2 [24] was Active. In the data set on HepG2 [13], the viability at 6 µM came out at 51.5%. Also, the inhibition result with HepG2 [15] and in the data set with HepG2 [37] was “Dose-Dependent Effect” in each case. Moreover, the IC50 (usually the concentration needed to halve the response being measured) in the data set with HepG2 [16] worked out at 6.11 µM. Also, the viability at 12 µM in the data set on HepG2 [18] is 4.7%.
Turning to `C=C[C@]1(C)CC[C@@H](C(=C)Cn2cc(CN3C(=O)c4cccc5c(N6CCN(C(=O)OCCCCCCOCc7cn([C@@H]8O[C@H](CO)[C@H](O)[C@H](O)[C@H]8O)nn7)CC6)ccc(c45)C3=O)nn2)C[C@H]1C(=C)C`, the remaining at 24 h in data set [39] came to 99%.
In the case of `C=C[C@]1(C)CC[C@@H](C(=C)Cn2cc(CN3C(=O)c4cccc5c(N6CCN(C(=O)OCCSSCCOCC(=O)NC(COCc7cn([C@@H]8O[C@H](CO)[C@H](O)[C@H](O)[C@H]8O)nn7)COCc7cn([C@@H]8O[C@H](CO)[C@H](O)[C@H](O)[C@H]8O)nn7)CC6)ccc(c45)C3=O)nn2)C[C@H]1C(=C)C`, the Drug uptake entry was “Not Active” in data set [40]; “Active” in data set [22]; “Active” in [31]; “Active” in data set [34]; “Active” in [35]; “Active” in data set [41]. For the same compound, the Activity entry in the data set with HepG2 [42] is reported as “Non-Toxic”.
